One data set has as its system RSV strain A2. Briefly: Anti-RSV cytoprotection assay in Hep2 cells. It is filed as cell-based. Conditions: human respiratory syncytial virus, HEp-2, 96 h. On the procedure:
Antiviral activity against RSV is determined using an in vitro cytoprotection assay in Hep2 cells. […] The method used is similar to methods previously described in published literature (Chapman et al., Antimicrob Agents Chemother. 2007, 51(9):3346-53.)
Hep2 cells are obtained from ATCC (Manassas, VI) and maintained in MEM media supplemented with 10% fetal bovine serum and penicillin/streptomycin. Cells are passaged twice a week and kept at subconfluent stage. Commercial stock of RSV strain A2 (Advanced Biotechnologies, Columbia, MD) is titered before compound testing to determine the appropriate dilution of the virus stock that generates desirable cytopathic effect in Hep2 cells.
For antiviral tests, Hep2 cells are seeded into 96-well plates 24 hours before the assay at a density of 3,000 cells/well. On a separate 96 well plate, compounds to be tested are serially diluted in cell culture media. Eight concentrations in 3-fold serial dilution increments are prepared for each tested compound and 100 uL/well of each dilution is transferred in duplicate onto plates with seeded Hep2 cells. Subsequently, appropriate dilution of virus stock previously determined by titration is prepared in cell culture media and 100 uL/well is added to test plates containing cells and serially diluted compounds. Each plate includes three wells of infected untreated cells and three wells of uninfected cells that served as 0% and 100% virus inhibition control, respectively. Following the infection with RSV, testing plates are incubated for 4 days in a tissue culture incubator. After the incubation, RSV-induced cytopathic effect is determined using a Cell TiterGlo reagent (Promega, Madison, WI) followed by a luminescence read-out. The percentage inhibition is calculated for each tested concentration relative to the 0% and 100% inhibition controls and the EC50 value for each compound is determined by non-linear regression as a concentration inhibiting the RSV-induced cytopathic effect by 50%. Ribavirin (purchased from Sigma, St. Louis, MO) is used as a positive control for antiviral activity.

Data set [1] can be described thus: Cytotoxicity in uninfected Hep2 cells. It counts as cell-based. Conditions: human, CellTiter Glo. On the procedure: Cytotoxicity of tested compounds is determined in uninfected Hep2 cells in parallel with the antiviral activity using the cell viability reagent in a similar fashion as described before for other cell types (Cihlar et al., Antimicrob Agents Chemother. 2008, 52(2):655-65.). The same protocol as for the determination of antiviral activity is used for the measurement of compound cytotoxicity except that the cells are not infected with RSV. Instead, fresh cell culture media (100 uL/well) without the virus is added to tested plates with cells and prediluted compounds. Cells are then incubated for 4 days followed by a cell viability test using CellTiter Glo reagent and a luminescence read-out. Untreated cell and cells treated with 50 ug/mL puromycin (Sigma, St. Louis, MO) are used as 100% and 0% cell viability control, respectively. The percent of cell viability is calculated for each tested compound concentration relative to the 0% and 100% controls and the CC50 value is determined by non-linear regression as a compound concentration reducing the cell viability by 50%.
For orientation: In ATP-based viability assays light output follows the ATP content of the culture.

The test system of data set [2] is Parainfluenza 3 strain C 243. Briefly: Parainfluenza cytoprotection assay in Vero cells. It is filed as cell-based. The following applies: 168 h, Parainfluenza 3 strain C 243, 7 days, MTS. How it is done:
(§1) The Parainfluenza Cytoprotection assay uses Vero cells and Parainfluenza 3 strain C 243. Briefly virus and cells are mixed in the presence of test compound and incubated for 7 days. […] Therefore, antiviral effect or cytoprotection is observed when compounds prevent virus replication. Each assay plate contains cell control wells (cells only), virus control wells (cells plus virus), compound toxicity control wells (cells plus compound only), compound colorimetric control wells (compound only), as well as experimental wells (compound plus cells plus virus). Cytoprotection and compound cytotoxicity are assessed by MTS (CellTiter®96 Reagent, Promega, Madison WI) dye reduction. […]
The virus used for this assay is Parainfluenza 3 strain C 243. […] The virus is resuspended and diluted into tissue culture medium such that the amount of virus added to each well is the amount determined to give between 85 to 95% cell killing at 6-7 days post-infection.
At assay termination (7 days post-infection), the assay plates are stained with the soluble tetrazolium-based dye MTS (3-(4,5-dimethylthiazol-2-yl)-5-(3-carboxymethoxyphenyl)-2-(4-sulfophenyl)-2H-tetrazolium; CellTiter®96 Reagent, Promega) to determine cell viability and quantify compound toxicity. […]

Data set [3] can be described thus: Compound cytotoxicity in Vero cells (MTS). It is filed as cell-based. The following applies: African green monkey (Cercopithecus aethiops), concentration resulting in 50% cell death, read-out: TC50. On the procedure: as §1
At assay termination (7 days post-infection), the assay plates are stained with the soluble tetrazolium-based dye MTS (3-(4,5-dimethylthiazol-2-yl)-5-(3-carboxymethoxyphenyl)-2-(4-sulfophenyl)-2H-tetrazolium; CellTiter®96 Reagent, Promega) to determine cell viability and quantify compound toxicity. MTS is metabolized by the mitochondrial enzymes of metabolically active cells to yield a soluble formazan product, allowing the rapid quantitative analysis of cell viability and compound cytotoxicity. […]

Data set [4] has as its target T1, RSV ribonucleoprotein (RNP) complexes (Human respiratory syncytial virus A, UniProt P28887).
T1 construct: The supernatant (S3) fraction, containing the enriched RSV RNP complexes, was collected; endogenous in cells; host or cells: HEp-2 cells infected with RSV A2; crude detergent-extracted S3 fraction
Briefly: RSV RNP transcription assay. The following applies: reduction of total radiolabled transcripts by 50%, 90 minute incubation at 30° C. It is filed as biochemical, RSV A2.
Experimental: HEp-2 cells were plated at a density of 7.1×10^4 cells/cm^2 in MEM+10% fetal bovine serum (FBS) and allowed to attach overnight at 37° C. (5% CO2). Following attachment, the cells were infected with RSV A2 (MOI=5) in 35 mL MEM+2% FBS. At 20 hours post-infection, the media was replaced with MEM+2% FBS supplemented with 2 μg/mL actinomycin D and returned to 37° C. for one hour. The cells were then washed once with PBS and treated with 35 mL of PBS+250 μg/mL lyso-lecithin for one minute, after which all liquid was aspirated. The cells were harvested by scrapping them into 1.2 mL of buffer A [50 mM TRIS acetate (pH 8.0), 100 mM potassium acetate, 1 mM DTT and 2 μg/mL actinomycin D] and lysed by repeated passage through an 18 gauge needle (10 times). The cell lysate was placed in ice for 10 minutes and then centrifuged at 2400 g for 10 minutes at 4° C. The supernatant (S1) was removed and the pellet (P1) was disrupted in 600 uL of Buffer B [10 mM TRIS acetate (pH 8.0), 10 mM potassium acetate and 1.5 mM MgCl2] supplemented with 1% Triton X-100 by repeated passage through an 18 gauge needle (10 times). The resuspended pellet was placed in ice for 10 minutes and then centrifuged at 2400 g for 10 minutes at 4° C. The supernatant (S2) was removed and the pellet (P2) was disrupted in 600 uL of Buffer B supplemented with 0.5% deoxycholate and 0.1% Tween 40. The resuspended pellet was placed in ice for 10 minutes and then centrifuged at 2400 g for 10 minutes at 4° C. The supernatant (S3) fraction, containing the enriched RSV RNP complexes, was collected and the protein concentration determined by UV absorbance at 280 nm. Aliquoted RSV RNP S3 fractions were stored at −80° C.
Transcription reactions contained 25 μg of crude RSV RNP complexes in 30 μL of reaction buffer [50 mM TRIS-acetate (pH 8.0), 120 mM potassium acetate, 5% glycerol, 4.5 mM MgCl2, 3 mM DTT, 2 mM ethyleneglycol-bis(2-aminoethylether)-tetraacetic acid (EGTA), 50 μg/mL BSA, 2.5 U RNasin (Promega), ATP, GTP, UTP, CTP and 1.5 uCi [α-^32P] NTP (3000 Ci/mmol)]. The radiolabled nucleotide used in the transcription assay was selected to match the nucleotide analog being evaluated for inhibition of RSV RNP transcription. […] The three remaining nucleotides were added at a final concentration of 100 μM.
To determine whether nucleotide analogs inhibited RSV RNP transcription, compounds were added using a 6 step serial dilution in 5-fold increments. Following a 90 minute incubation at 30° C., the RNP reactions were stopped with 350 μL of Qiagen RLT lysis buffer and the RNA was purified using a Qiagen RNeasy 96 kit. Purified RNA was denatured in RNA sample loading buffer (Sigma) at 65° C. for 10 minutes and run on a 1.2% agarose/MOPS gel containing 2M formaldehyde. […]

Where [5] appears, read: RSV-induced cytopathic effect, Hep2 cells, RSV strain A2, 4 days, Cell TiterGlo, read-out: EC50.

Where two headings read alike, the source gives them in different places. A value given as a limit tells only on which side of the number the result lay.

T1 sequence (P28887 whole entry, looked up, one chain of several): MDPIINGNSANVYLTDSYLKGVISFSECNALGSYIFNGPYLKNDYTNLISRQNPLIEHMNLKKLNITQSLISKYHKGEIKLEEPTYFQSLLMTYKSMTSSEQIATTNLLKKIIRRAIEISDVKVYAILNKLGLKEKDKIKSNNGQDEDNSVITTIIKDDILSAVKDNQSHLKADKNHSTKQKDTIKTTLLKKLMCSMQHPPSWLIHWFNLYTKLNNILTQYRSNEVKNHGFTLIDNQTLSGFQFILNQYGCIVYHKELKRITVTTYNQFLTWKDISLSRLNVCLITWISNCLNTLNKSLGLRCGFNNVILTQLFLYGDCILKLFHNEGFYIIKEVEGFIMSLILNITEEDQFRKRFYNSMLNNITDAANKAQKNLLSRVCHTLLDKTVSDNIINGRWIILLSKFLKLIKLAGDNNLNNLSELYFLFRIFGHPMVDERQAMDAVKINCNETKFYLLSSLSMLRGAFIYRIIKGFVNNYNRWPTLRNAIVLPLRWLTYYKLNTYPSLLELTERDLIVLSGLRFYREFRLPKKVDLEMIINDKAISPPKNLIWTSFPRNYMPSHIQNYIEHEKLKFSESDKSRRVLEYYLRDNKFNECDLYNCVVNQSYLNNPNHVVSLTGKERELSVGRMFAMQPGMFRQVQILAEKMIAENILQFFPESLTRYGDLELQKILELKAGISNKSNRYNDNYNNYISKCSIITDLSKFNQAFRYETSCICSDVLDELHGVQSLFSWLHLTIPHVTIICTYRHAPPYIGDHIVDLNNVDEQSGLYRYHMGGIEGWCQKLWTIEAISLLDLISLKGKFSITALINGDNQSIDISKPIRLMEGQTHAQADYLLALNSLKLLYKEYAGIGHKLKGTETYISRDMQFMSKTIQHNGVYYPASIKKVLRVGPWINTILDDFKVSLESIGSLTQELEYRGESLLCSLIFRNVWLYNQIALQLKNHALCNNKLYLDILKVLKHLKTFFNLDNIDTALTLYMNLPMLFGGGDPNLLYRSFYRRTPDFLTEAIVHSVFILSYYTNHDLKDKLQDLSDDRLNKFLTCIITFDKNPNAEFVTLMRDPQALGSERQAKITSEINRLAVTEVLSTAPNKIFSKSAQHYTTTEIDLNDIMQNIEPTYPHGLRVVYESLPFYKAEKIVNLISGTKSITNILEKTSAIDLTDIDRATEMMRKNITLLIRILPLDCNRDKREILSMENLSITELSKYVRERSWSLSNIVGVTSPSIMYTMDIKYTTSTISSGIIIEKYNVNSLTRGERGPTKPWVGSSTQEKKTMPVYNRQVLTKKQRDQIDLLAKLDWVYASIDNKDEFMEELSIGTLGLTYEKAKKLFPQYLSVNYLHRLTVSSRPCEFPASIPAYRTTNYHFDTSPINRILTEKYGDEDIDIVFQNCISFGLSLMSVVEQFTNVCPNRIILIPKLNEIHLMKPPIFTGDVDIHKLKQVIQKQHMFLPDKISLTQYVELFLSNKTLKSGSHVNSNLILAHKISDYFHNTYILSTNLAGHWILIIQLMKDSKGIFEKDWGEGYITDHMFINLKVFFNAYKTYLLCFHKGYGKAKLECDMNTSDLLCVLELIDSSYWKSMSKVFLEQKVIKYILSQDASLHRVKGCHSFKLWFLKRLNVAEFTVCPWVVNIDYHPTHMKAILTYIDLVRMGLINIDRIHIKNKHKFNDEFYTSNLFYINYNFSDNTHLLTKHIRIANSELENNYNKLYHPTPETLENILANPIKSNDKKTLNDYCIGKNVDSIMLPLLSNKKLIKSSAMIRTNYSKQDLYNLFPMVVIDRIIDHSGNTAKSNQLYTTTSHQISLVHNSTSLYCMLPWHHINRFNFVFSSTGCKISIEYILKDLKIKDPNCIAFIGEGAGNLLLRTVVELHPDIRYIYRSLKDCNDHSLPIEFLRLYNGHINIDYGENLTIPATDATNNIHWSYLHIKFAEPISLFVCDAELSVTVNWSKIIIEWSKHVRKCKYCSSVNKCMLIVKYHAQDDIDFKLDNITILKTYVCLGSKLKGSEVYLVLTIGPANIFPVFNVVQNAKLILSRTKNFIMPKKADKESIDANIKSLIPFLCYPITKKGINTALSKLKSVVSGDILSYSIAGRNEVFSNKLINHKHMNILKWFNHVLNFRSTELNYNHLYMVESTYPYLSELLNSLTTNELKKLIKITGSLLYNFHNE

For `N#C[C@@]1(c2ccc3c(N)ncnn23)O[C@H](CO)[C@@H](O)[C@H]1O` [Compound 1, (2R, 3R, 4S, 5R)-2-(4-aminopyrrolo[1,2-f][1,2,4]triazin-7-yl)-3,4-dihydroxy (hydroxymethyl)tetrahydrofuran-2-carbonitrile], the half-maximal effective concentration (EC50) (in general, the concentration at which the effect is half-maximal) with RSV strain A2 (setting [5]) was 0.48 µM. The CC50 at 4 days in data set [1] is over 100 µM. Moreover, the IC50 (in general, the point on the concentration scale where inhibition reaches its midpoint) in data set [2] came to 1.71 µM. Moreover, the CC50 at 7 days in data set [3] was over 30 µM.
`C[C@@]1(c2ccc3c(N)ncnn23)O[C@H](COP(=O)(O)OP(=O)(O)OP(=O)(O)O)[C@@H](O)[C@H]1F` [Compound 6, ((2R, 3R, 4R, 5S)-5-(4-aminopyrrolo[1,2-f][1,2,4]triazin-7-yl)-4-fluoro-3-hydroxy-5-methyltetrahydrofuran-2-yl)methyl Tetrahydrogen Triphosphate]: the IC50 in data set [4] was found to be 3.6 µM.
On to `CCOC(=O)[C@H](C)NP(=O)(OC[C@H]1O[C@@](C#N)(c2ccc3c(N)ncnn23)[C@H](O)[C@@H]1O)Oc1ccccc1` (stereo partly drawn) [Compound 10, (2S)-ethyl 2-((((2R,3S,4R,5R)-5-(4-aminopyrrolo[1,2-f][1,2,4]triazin-7-yl)cyano-3,4-dihydroxytetrahydrofuranyl)methoxy)(phenoxy)phosphorylamino)propanoate], for which the concentration for a half-maximal effect (EC50) in the data set on RSV strain A2 turned out to be 0.18 µM. In data set [1], the CC50 at 4 days worked out at 47 µM.
With `CCOC(=O)[C@H](C)NP(=O)(N[C@@H](C)C(=O)OCC)OC[C@H]1O[C@@](C#N)(c2ccc3c(N)ncnn23)[C@H](O)[C@@H]1O` [Compound 12, (2S,2'S)-diethyl 2,2′-((((2R,3S,4R,5R)-5-(4-aminopyrrolo[1,2-f][1,2,4]triazinyl)-5-cyano-3,4-dihydroxytetrahydrofuranyl)methoxy)phosphoryl)bis(azanediyl)dipropanoate], in the data set on RSV strain A2 (setting [5]), the EC50 came out at 6.5 µM. In data set [1], this compound gave a CC50 at 4 days of over 100 µM.
For `C#C[C@@]1(c2ccc3c(N)ncnn23)O[C@H](CO)[C@@H](O)[C@H]1O` [Compound 13, (2S,3R,4S,5R)-2-(4-aminopyrrolo[1,2-f][1,2,4]triazin-7-yl)-2-ethynyl (hydroxymethyl)tetrahydrofuran-3,4-diol] the same measures were 34 µM and over 100 µM.
As for `C[C@@]1(c2ccc3c(N)ncnn23)O[C@H](CO)[C@@H](O)[C@H]1O` [Compound 14], the EC50 in the data set on RSV strain A2 (setting [5]) worked out at 2.7 µM. In addition, the CC50 at 4 days in data set [1] is 92 µM. Also, in data set [2], half-maximal inhibition (IC50) was put at 5.23 µM. Also, the CC50 at 7 days in data set [3] is over 30 µM.
Take `CC(C)(C)C(=O)SCCOP(=O)(OCCSC(=O)C(C)(C)C)OC[C@H]1O[C@@](C#N)(c2ccc3c(N)ncnn23)[C@H](O)[C@@H]1O` [Compound 15, S,S′-2,2′-((((2R,3S,4R,5R)-5-(4-aminopyrrolo[1,2-f][1,2,4]triazin-7-yl)-5-cyano-3,4-dihydroxytetrahydrofuran-2-yl)methoxy)phosphoryl)bis(oxy)bis(ethane-2,1-diyl) bis(2,2-dimethylpropanethioate)]: in the data set on RSV strain A2 (setting [5]), the EC50 worked out at 0.15 µM. Moreover, the CC50 at 4 days in data set [1] was over 100 µM.
On to `C#C[C@@]1(c2ccc3c(N)ncnn23)O[C@H](COP(=O)(OCCSC(=O)C(C)(C)C)OCCSC(=O)C(C)(C)C)[C@@H](O)[C@H]1O` [Compound 16, S,S′-2,2′-((((2R, 3S, 4R, 5S)-5-(4-aminopyrrolo[1,2-f][1,2,4]triazin-7-yl)-5-ethynyl-3,4-dihydroxytetrahydrofuran-2-yl)methoxy)phosphoryl)bis(oxy)bis(ethane-2,1-diyl) bis(2,2-dimethylpropanethioate)], for which it took 3.3 µM to reach a half-maximal effect in the data set on RSV strain A2 (EC50). The same compound returned a CC50 at 4 days in data set [1] of over 100 µM.
Take `C#C[C@@]1(c2ccc3c(N)ncnn23)O[C@H](COP(=O)(O)OP(=O)(O)OP(=O)(O)O)[C@@H](O)[C@H]1O` [Compound 18, ((2R, 3S, 4R, 5S)-5-(4-aminopyrrolo[1,2-f][1,2,4]triazin-7-yl)-5-ethynyl-3,4-dihydroxytetrahydrofuran-2-yl)methyl tetrahydrogen triphosphate]: the IC50 in data set [4] was found to be 1.6 µM.
Still for that read-out and setting: for `C[C@@]1(c2ccc3c(N)ncnn23)O[C@H](COP(=O)(O)OP(=O)(O)OP(=O)(O)O)[C@@H](O)[C@H]1O` [Compound 19, ((2R, 3S, 4R, 5S)-5-(4-aminopyrrolo[1,2-f][1,2,4]triazin-7-yl)-3,4-dihydroxymethyltetrahydrofuran-2-yl)methyl Tetrahydrogen Triphosphate] the value was 1.5 µM.
As to `N#C[C@@]1(c2ccc3c(N)ncnn23)O[C@H](COP(=O)(O)OP(=O)(O)OP(=O)(O)O)[C@@H](O)[C@H]1F` [Compound 20, ((2R,3R,4R,5R)-5-(4-aminopyrrolo[1,2-f][1,2,4]triazin-7-yl)-5-cyano-4-fluoro-3-hydroxytetrahydrofuran-2-yl)methyl Tetrahydrogen Triphosphate], in data set [4], 0.8 µM corresponded to half-maximal inhibition (IC50).
